# Patent US9446087B2, “Anti-resorptive and bone building dietary supplements and methods of use” (priority 2006, dated 2016)
# Several values for one entry are separate records, joined by “and”; a condition that tells them apart may be missing. Equal values may be shown once. Marks after values point to notes of the source that are not given here.
# How the values were obtained:
# BMP-2 protein = assay: BMP-2 Protein Expression Assay (Hu09 cells, ELISA); assay type: cell-based
# Method: The cells are treated with different proteasome inhibitors for 24 hours. After incubation, the conditioned media is transferred into microcentrifuge tubes and centrifuged at 14,000 rpm for 2-3 minutes to remove cellular debris. The concentration of BMP-2 protein in the supernatant is then determined using the standard BMP-2 Elisa Kit (R&D ELISA KIT DBP200). Recombinant hBMP-2 (R&D) is used as a standard.
# BMP-2 = BMP-2 Gene Expression Assay (MG-63 cells, real time PCR); assay type: cell-based, human
# Method: It is also possible to test for BMP-2 gene expression and protein expression using assays similar to those described above for testing BMP-2 promoter activity. In particular, for gene expression, the human osteosarcoma cell line, MG-63 (ATCC# CRL-1427), is maintained in phenol-red containing MEM (as recommended by ATCC) at 37° C. and 5% CO2. Twenty-four hours prior to experimentation, 3×10^5 cells are seeded in 12-well plates in phenol-red free MEM. […] After an overnight incubation, RNA is extracted using conventional trizol/guanidine isothiocyanate based lysis. The isolated RNA was digested with RNase-free DNase I to remove any DNA contamination and then reverse transcribed to cDNA using random hexamer as well as oligo(dT) primers according to the manufacturer's instructions (Stratagene). Quantitative real time PCR is performed using FAM-labeled specific primers for BMP-2 and HEX-labeled specific primers for 18S rRNA (Invitrogen). All reactions are carried out in triplicate and the relative amount of mRNAs in treated versus untreated samples is calculated using the comparative CT method established by Applied Biosystems (2001). Gene expression changes of 2-fold or greater are considered significant.
# BMP-2 promoter = assay: BMP2 Promoter assay (2T3-BMP2-Luciferase cells, luciferase); assay type: cell-based, murine
# Neonatal murine calvaria = assay: Calvarial Assay to Measure Bone Growth; assay type: cell-based, Swiss white mice
# Method: Neonatal murine calvaria from 4 day old Swiss white mice are excised, placed into BGJ media (Sigma), and cut in half along the midline suture. One milliliter of BGJ media supplemented with 0.1% bovine serum albumin (BSA) is added to each well of a 12 well tissue culture plate (Costar) to which the relevant factors or vehicles are added. Each half calvaria is placed on a stainless steel grid in the above media at the media/air interface. Usually 4 bones per experimental group are used. […] Factors to be tested are added on Day 0 (the day of dissection) and media is changed at 24 and 96 hours (if a 7 day assay is required). Calvaria are maintained in humidified air (5% Co2), at 37° C. Following the period of incubation, the calvaria are then removed and fixed overnight in 10% formalin. The calvaria are then decalcified in 14% EDTA overnight and are then embedded in paraffin wax. Sections are then cut, using a standard microtome, along the midline suture to reveal the coronal suture and the region posterior to this suture. Four micrometer sections were taken initially and at two sequential […] depths. Sections are placed on coated glass slides (Superfrost plus, Fisher Scientific, Pittsburgh, Pa.) and stained with hematoxylin and eosin. The total and new bone area (expressed as mm^2), suture thickness (mm), and number of cells lining the bone surface are determined in the section posterior to the […] suture. Histomorphometric analysis is performed using the Osteomeasure System (Osteometrics INC, Atlanta, Ga.).
# [1] = tested on: Female, Sprague Dawley rats; assay: In Vivo Study to Measure Bone Growth - micro-CT measurements; set-up: species or system rat; conditions: positive control, 50 μg/kg (10 μg/200 g)/3 × per week; 35 days; vs placebo group
# Method: Three different formulas were tested in an in vivo study involving female, intact rats, aged approximately 12-14 weeks, with approximate body weights between 200-250 grams. Formula 1 included dosages of quercetin anhydrate and licorice at 250 mg quercetin:250 mg licorice ethanol extract and 500 mg quercetin:500 mg licorice ethanol extract. Formula 2 included dosages of quercetin anhydrate and licorice at 250 mg quercetin:125 mg licorice ethanol extract; 500 mg quercetin:250 mg licorice ethanol extract; and 1000 mg quercetin:500 mg licorice ethanol extract. Formula 3 included dosages of quercetin and licorice at 1000 mg quercetin:200 mg licorice ethanol extract. The study lasted 35 days. Eight separate groups of rats were tested with 15 rats in each group. Two of the eight groups of rats tested were control groups. One was a placebo control group and the other group received 50 μg/kg (10 μg/200 g)/3× per week parathyroid hormone. Parathyroid hormone, known as an anabolic agent, served as a positive control. See, e.g., Turner et al., “Disuse in adult male rats attenuates the bone anabolic response to a therapeutic dose of parathyroid hormone.” J. Appl Physiol. 2006. Vol. 101:881-886, the entire contents of which are incorporated herein by reference.
# Table 7 below indicates the formula given to each of the 8 test groups. The dosages in Table 7 are based on the recommended human daily dosages. FDA dose conversion formula (Human equivalent dose (HED, mg/kg)=rat dose in mg/kg×(rat weight in kg/human weight in kg)^0.33) was used to convert the human dose to the rat dose. HED=rat NOAEL×(W-rat/W-human)^(1-b), b=0.67.
# Female, Sprague Dawley rats were used (200-250 gm each, ˜12-14 weeks old). Animals were fed at 15 gm/day, which included either a placebo diet or one of the formulas listed above, for a period of 35 days from the beginning of the experiment. Chow was made available each morning to the rats at the rate of 15 grams/rat/day. The rats were allowed free access to water and housed in appropriate cages for the entire experiment. Unrestricted activity was allowed during the entire experiment, which lasted 35 days.
# The effectiveness of the formulas on bone formation was assessed by outcome measurements that included biomechanical measurement (to assess bone strength and function information), micro-CT (to analyze virtual bone quality and function information), and histomorphology measurement (to analyze bone quality and functional information). […] These measurements were determined after 35 days of treatment. […]
# Obtaining information from a wide range of parameters such as bone mineral density (BMD), bone volume (% bone volume/total volume), trabecular number, and trabecular separation is critical for bone structure assessment quantitatively and qualitatively. […]
# [2] = tested on: Female, Sprague Dawley rats; assay: In Vivo Study to Measure Bone Growth - biomechanical measurements; set-up: species or system rat; conditions: positive control, 50 μg/kg (10 μg/200 g)/3 × per week; 35 days; vs placebo group
# Method: Three different formulas were tested in an in vivo study involving female, intact rats, aged approximately 12-14 weeks, with approximate body weights between 200-250 grams. Formula 1 included dosages of quercetin anhydrate and licorice at 250 mg quercetin:250 mg licorice ethanol extract and 500 mg quercetin:500 mg licorice ethanol extract. Formula 2 included dosages of quercetin anhydrate and licorice at 250 mg quercetin:125 mg licorice ethanol extract; 500 mg quercetin:250 mg licorice ethanol extract; and 1000 mg quercetin:500 mg licorice ethanol extract. Formula 3 included dosages of quercetin and licorice at 1000 mg quercetin:200 mg licorice ethanol extract. The study lasted 35 days. […]
# (§1) The effectiveness of the formulas on bone formation was assessed by outcome measurements that included biomechanical measurement (to assess bone strength and function information), micro-CT (to analyze virtual bone quality and function information), and histomorphology measurement (to analyze bone quality and functional information). […] These measurements were determined after 35 days of treatment.
# Besides bone mass and bone volume evaluation, bone strength was examined mechanically using two different parameters. One parameter measured the maximum force needed to fracture the bone and the other determined the stiffness (the elasticity) of bone. […]
# [3] = tested on: Female, Sprague Dawley rats; assay: In Vivo Study to Measure Bone Growth - histomorphological measurements; set-up: species or system rat; conditions: positive control, 50 μg/kg (10 μg/200 g)/3 × per week; 35 days; vs placebo group
# Method: Three different formulas were tested in an in vivo study involving female, intact rats, aged approximately 12-14 weeks, with approximate body weights between 200-250 grams. Formula 1 included dosages of quercetin anhydrate and licorice at 250 mg quercetin:250 mg licorice ethanol extract and 500 mg quercetin:500 mg licorice ethanol extract. Formula 2 included dosages of quercetin anhydrate and licorice at 250 mg quercetin:125 mg licorice ethanol extract; 500 mg quercetin:250 mg licorice ethanol extract; and 1000 mg quercetin:500 mg licorice ethanol extract. Formula 3 included dosages of quercetin and licorice at 1000 mg quercetin:200 mg licorice ethanol extract. The study lasted 35 days. Eight separate groups of rats were tested with 15 rats in each group. Two of the eight groups of rats tested were control groups. One was a placebo control group and the other group received 50 μg/kg (10 μg/200 g)/3× per week parathyroid hormone. Parathyroid hormone, known as an anabolic agent, served as a positive control. See, e.g., Turner et al., “Disuse in adult male rats attenuates the bone anabolic response to a therapeutic dose of parathyroid hormone.” J. Appl Physiol. 2006. […]
# as §1
# Six animals from each group were sacrificed on day 35 following treatment. […] To determine the effect of the different formulas on bone formation, trabecula bone volume, trabecular cells number and trabecular separation were assessed by histomorphology technique. […]
# Bone mineral apposition rate (MARs), also reported by Table 8, was determined by measuring the mean interlabel distance divided by the time interval (5 days) between the two fluororchromes administered. […]
molecule,measurement,setting,value
"O=c1c(O)c(-c2ccc(O)c(O)c2)oc2cc(O)cc(O)c12 [Q, Quercetin]",BMP-2 Protein Expression,BMP-2 protein; 1 μg/ml,2.0 FOLD
same,BMP-2 Protein Expression,BMP-2 protein; 10 μg/ml,4.6 FOLD
same,BMP-2 Protein Expression,BMP-2 protein; 100 μg/ml,2.2 FOLD
same,BMP-2 Expression (fold change),BMP-2; 0.1 μg/ml,No change (−1.06) fold change
same,BMP-2 Expression (fold change),BMP-2; 1 μg/ml,2 fold change and 2.03 fold change
same,BMP-2 Expression (fold change),BMP-2; 5 μg/ml,2.51 ± 0.14 fold change
same,Fold Change in Gene Expression,BMP-2; 10 μg/ml,2.6 × increase
same,BMP-2 Expression (fold change),BMP-2; 20 μg/ml,4.61 ± 0.07 fold change
same,BMP-2 Expression (fold change),BMP-2; 100 μg/ml,14 fold change
same,BMP2 Promoter assay (ratio to control),BMP-2 promoter; 0.05 μg/ml,1.00 FOLD
same,BMP2 Promoter assay (ratio to control),BMP-2 promoter; 0.1 μg/ml,1.10 FOLD
same,BMP2 Promoter assay (ratio to control),BMP-2 promoter; 0.2 μg/ml,1.10 FOLD
same,BMP2 Promoter assay (ratio to control),BMP-2 promoter; 0.4 μg/ml,1.00 FOLD
same,BMP2 Promoter assay (ratio to control),BMP-2 promoter; 0.8 μg/ml,1.15 FOLD
same,BMP2 Promoter assay (ratio to control),BMP-2 promoter; 1.6 μg/ml,1.30 FOLD
same,BMP2 Promoter assay (ratio to control),BMP-2 promoter; 3.2 μg/ml,1.80 FOLD
same,BMP2 Promoter assay (ratio to control),BMP-2 promoter; 6.3 μg/ml,2.30 FOLD
same,BMP2 Promoter assay (ratio to control),BMP-2 promoter; 12.5 μg/ml,2.90 FOLD
same,BMP2 Promoter assay (ratio to control),BMP-2 promoter; 25 μg/ml,3.60 FOLD
same,BMP2 Promoter assay (ratio to control),BMP-2 promoter; 50 μg/ml,4.80 FOLD
same,BMP2 Promoter assay (ratio to control),BMP-2 promoter; 100 μg/ml,5.20 FOLD
same,Calvarial Assay Results - Bone Formation Stimulated by Extract Combinations,Neonatal murine calvaria; 0.2 ug/ml,6.90 ± 0.56 mm^2 × 10^−3
same,Calvarial Assay Results - Bone Formation Stimulated by Extract Combinations,Neonatal murine calvaria; 0.7 ug/ml,10.30 ± 0.78^a mm^2 × 10^−3
same,Calvarial Assay Results - Bone Formation Stimulated by Extract Combinations,Neonatal murine calvaria; 1 ug/ml,13.70 ± 3.20^a mm^2 × 10^−3
same,Calvarial Assay Results- Bone formation,Neonatal murine calvaria; 1 μg/ml,7.57 ± 1.52 mm^2 × 10^−3
same,Calvarial Assay Results - Bone Formation Stimulated by Extract Combinations,Neonatal murine calvaria; 8.3 ug/ml,0.10 ± 0.10 mm^2 × 10^−3
same,Calvarial Assay Results- Bone formation,Neonatal murine calvaria; 10 μg/ml,13.41 ± 2.50^a mm^2 × 10^−3
same,Calvarial Assay Results - Bone Formation Stimulated by Extract Combinations,Neonatal murine calvaria; 14.3 ug/ml,0.10 ± 0.12 mm^2 × 10^−3
same,Calvarial Assay Results- Bone formation,Neonatal murine calvaria; 100 μg/ml,13.55 ± 1.47^a mm^2 × 10^−3
CCC(C)(C)C(=O)O[C@H]1C[C@@H](C)C=C2C=C[C@H](C)[C@H](CC[C@@H]3C[C@@H](O)CC(=O)O3)[C@H]21 [Simvastatin],Calvarial Assay Results- Bone formation,"Neonatal murine calvaria; 0.25 μM, positive control",7.45 ± 1.34 mm^2 × 10^−3
same,Calvarial Assay Results- Bone formation,"Neonatal murine calvaria; 0.5 μM, positive control",9.50 ± 1.00 mm^2 × 10^−3
same,Calvarial Assay Results- Bone formation,"Neonatal murine calvaria; 1 μM, positive control",12.5 ± 1.00 mm^2 × 10^−3
"PTH: parathyroid hormone, anabolic agent, positive control (protein, UniProt P01270 32-115, looked up, Parathyroid hormone, parathyroid hormone, anabolic agent, positive control) Parathyroid hormone: SVSEIQLMHNLGKHLNSMERVEWLRKKLQDVHNFVALGAPLAPRDAGSQRPRKKEDNVLVESHEKSLGEADKADVNVLTKAKSQ",% Bone Volume/ Total Volume,[1],32%^a
same,Bone Mineral Density (BMD),[1],86%^a
same,Trabecular Number (N/6 mm^2),[1],25%^a
same,Trabecular separation (mm),[1],−28%^a
same,Bone Stiffness,[2],0.0%
same,Maximum Force Required to Fracture Bones,[2],0.0%
same,Trabecular Separation,[3],−38.30%
same,Trabecular thickness,[3],7.35%
same,reduction in trabecular separation,[3],38.30%
